Results reported in patent US20080038290A1, “Cosmetic slimming composition containing an extract of biomass of the alga neochloris oleoabundans” (LVMH RECHERCHE, priority 2006, published 2008).
Entries after “also recorded” stand apart in the source; their conditions may differ.

System: explants of adipose tissues
Assay: Assay of lipolytic activity: free fatty acids released into the culture medium from adipose tissue explants kept alive
Assay type: cell-based
Settings: caffeine at a concentration of 0.01% (100 μg/ml)
Method: The different extracts are incorporated into the culture medium under the conditions described below.
After a contact time of 8 days, the activity is evaluated by assaying the fatty acids released into the culture medium.
Preparation of 9 explants of adipose tissues and keeping them alive in BEM (BIO-EC's Explants Medium)
Division of the explants into 3 batches of 3 explants: • a reference batch, in the presence of the culture medium • a batch treated with caffeine as a positive reference • a batch treated with an extract according to the invention
At D0 the explants are kept alive in 2 ml of culture medium in which the test extract is incorporated.
This treatment is repeated at D2, D4 and D6.
At D2, D4, D6 and D8 the culture medium is sampled. For each explant the media sampled at D2, D4, D6 and D8 are combined in the same tube and stored at −20° C. for assaying the fatty acids present in the medium.
After extraction of the culture medium, the free fatty acids present therein are separated off and assayed by high performance thin layer chromatography.
The lipolytic activity is evaluated by determining the proportions of free fatty acids released into the culture medium.

In the case of `Cn1c(=O)c2c(ncn2C)n(C)c1=O` [Caffeine, caffeine], the lipolytic effect is reported as “no longer having a lipolytic effect; also recorded: no longer active”.
